Laboratory results reported in patent publication US5496830A (Johns Hopkins University, priority 1994, dated 1996).
Where two headings read alike, the source gives them in different places.

Legend:
[1] = test system: T. brucei brucei (MiTat 1.2, strain 427, variant 221); experiment: In vitro inhibition of blood stream form trypanosomes, acid phosphatase detection of survivors; assay type: cell-based; conditions: Trypanosoma brucei, read-out: Trypanosome EC50
Protocol: Camptothecin compounds were tested against blood stream form trypanosomes in vitro. T. brucei brucei (MiTat 1.2, strain 427, variant 221) were cultured at 37° C. according to the methods of Carruthers and Cross (Carruthers, V. B., and Cross, G. A. M. (1992) Proc. Natl. Acad. Sci. USA., 89:8818-8821) with the substitution of phenol red-free Iscoves Modified Dulbecco's Medium (Mediatech, Inc.) in the HMI-9 culture medium. […] Exponentially growing trypanosomes were diluted to 10^5 cells/ml with prewarmed medium.
The plate was incubated at 37° C. for 24 h in a humidified incubator maintained with 5% CO2.
Surviving trypanosomes were detected by the acid phosphatase method (Martin, A. and Clynes, M. (1991) In Vitro Cell. Dev. Biol. 27A:183-184). p-Nitrophenol phosphate (20 μl of 20 mg/ml; solubilized in 1 M sodium acetate, pH 5.5; 1% Triton X-100) was added to each 200 μl sample and mixed. The plate was then incubated for 3-4 h at 37° C. The production of p-nitrophenol was measured at 405 nm on a microplate reader (UVmax kinetic microplate reader, Molecular Devices). Quadruplicate values were averaged and blanks (complete reaction mixture without trypanosomes) were subtracted for each drug concentration.

topoisomerase I [2] = biological target: T1, topoisomerase I (Homo sapiens, UniProt P11387); experiment: Topoisomerase I inhibition relative to 20(S)-camptothecin (separate independent experiments); assay type: biochemical; conditions: T1 relative to 20(S)CPT
T1 sequence (P11387 1-765): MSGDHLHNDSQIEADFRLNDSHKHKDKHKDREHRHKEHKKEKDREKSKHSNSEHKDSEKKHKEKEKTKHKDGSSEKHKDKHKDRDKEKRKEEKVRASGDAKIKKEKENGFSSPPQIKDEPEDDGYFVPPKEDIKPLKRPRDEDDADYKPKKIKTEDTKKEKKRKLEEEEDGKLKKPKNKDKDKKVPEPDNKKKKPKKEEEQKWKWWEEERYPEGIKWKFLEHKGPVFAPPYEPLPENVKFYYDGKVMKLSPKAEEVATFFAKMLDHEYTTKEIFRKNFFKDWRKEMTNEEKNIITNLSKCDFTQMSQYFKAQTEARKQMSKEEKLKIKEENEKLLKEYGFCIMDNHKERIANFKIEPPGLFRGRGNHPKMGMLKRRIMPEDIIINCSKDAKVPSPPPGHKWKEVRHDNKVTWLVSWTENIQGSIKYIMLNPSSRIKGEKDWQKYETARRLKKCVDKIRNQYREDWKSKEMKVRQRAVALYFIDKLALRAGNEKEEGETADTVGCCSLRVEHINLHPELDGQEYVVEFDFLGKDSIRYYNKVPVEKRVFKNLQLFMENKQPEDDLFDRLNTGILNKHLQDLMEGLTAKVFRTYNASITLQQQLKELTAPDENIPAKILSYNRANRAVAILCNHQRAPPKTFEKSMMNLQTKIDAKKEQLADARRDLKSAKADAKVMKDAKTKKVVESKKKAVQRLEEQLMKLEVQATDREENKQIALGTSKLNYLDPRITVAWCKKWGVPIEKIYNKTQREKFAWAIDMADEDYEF

topoisomerase I [3] = biological target: T2, topoisomerase I (Bos taurus, UniProt F1MN93); experiment: Topoisomerase I inhibition by the cleavable complex assay of Hsiang et al.; assay type: biochemical; conditions: for T-1 Inhibition IC50: cleavable complex assay of Hsiang et al.
T2 sequence (F1MN93 1-767): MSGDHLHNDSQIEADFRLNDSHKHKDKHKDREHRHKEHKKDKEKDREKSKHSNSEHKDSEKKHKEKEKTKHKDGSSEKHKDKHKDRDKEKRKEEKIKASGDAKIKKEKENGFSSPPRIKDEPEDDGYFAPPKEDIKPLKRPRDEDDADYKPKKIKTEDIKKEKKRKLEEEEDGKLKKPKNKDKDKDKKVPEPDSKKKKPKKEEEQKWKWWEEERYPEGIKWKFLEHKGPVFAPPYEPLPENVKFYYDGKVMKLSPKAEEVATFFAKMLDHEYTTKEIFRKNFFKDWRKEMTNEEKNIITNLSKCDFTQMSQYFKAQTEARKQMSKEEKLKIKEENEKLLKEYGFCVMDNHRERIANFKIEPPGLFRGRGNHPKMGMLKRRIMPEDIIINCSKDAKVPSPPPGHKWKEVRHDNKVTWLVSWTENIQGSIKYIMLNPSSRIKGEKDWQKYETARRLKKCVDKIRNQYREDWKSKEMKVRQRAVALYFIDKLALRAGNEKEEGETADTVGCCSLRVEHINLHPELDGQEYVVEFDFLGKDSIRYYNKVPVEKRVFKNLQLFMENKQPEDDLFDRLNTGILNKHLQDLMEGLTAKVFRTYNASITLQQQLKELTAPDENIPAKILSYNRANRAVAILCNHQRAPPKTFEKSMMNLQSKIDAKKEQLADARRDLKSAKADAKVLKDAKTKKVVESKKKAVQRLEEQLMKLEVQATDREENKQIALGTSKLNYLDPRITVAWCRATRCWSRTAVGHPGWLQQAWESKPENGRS

[4] = blood stream form T. brucei, 24 h at 37° C., acid phosphatase method

Compound	EC50 [1, 4]	Relative Potency T-1 Inhibition (topoisomerase I [2])	EC50 ([1]; 24 h)	IC50 (topoisomerase I [3])	T-1 Inhibition IC50 (topoisomerase I [3])
CCC1(OC(=O)CN)C(=O)OCc2c1cc1n(c2=O)Cc2cc3cc4c(cc3nc2-1)OCO4 (racemic) [10,11-MD-20-Glycinate-20(RS)-CPT]	920 nM	–	–	–	–
CCc1c2c(nc3cccc(N)c13)-c1cc3c(c(=O)n1C2)COC(=O)[C@]3(O)CC [7-Ethyl-9-amino-20(S)-CPT, 7-ethyl-9-amino-20(S)-camptothecin]	–	5	910 nM	–	–
CCc1c2c(nc3cccc([N+](=O)[O-])c13)-c1cc3c(c(=O)n1C2)COC(=O)[C@]3(O)CC [7-Ethyl-9-nitro-20(S)-CPT, 7-ethyl-9-nitro-20(S)-camptothecin]	–	4	2670 nM	–	–
CCc1c2c(nc3cc4c(cc13)OCO4)-c1cc3c(c(=O)n1C2)COC(=O)[C@]3(O)CC [7-Ethyl-10,11-methylenedioxy-20(S)-CPT, 7-ethyl-10,11-methylenedioxy-20(S)-camptothecin]	–	12	60 nM	–	–
CCc1c2c(nc3ccc(N)cc13)-c1cc3c(c(=O)n1C2)COC(=O)[C@]3(O)CC [7-Ethyl-10-amino-20(S)-CPT, 7-ethyl-10-amino-20(S)-camptothecin]	–	5	620 nM	–	–
CCc1c2c(nc3ccc([N+](=O)[O-])cc13)-c1cc3c(c(=O)n1C2)COC(=O)[C@]3(O)CC [7-Ethyl-10-nitro-20(S)-CPT, 7-ethyl-10-nitro-20(S)-camptothecin]	–	4	600 nM	–	–
CCc1c2c(nc3ccccc13)-c1cc3c(c(=O)n1C2)COC(=O)[C@]3(O)CC [7-Ethyl-20(S)-CPT, 7-ethyl-20(S)-camptothecin]	–	3	770 nM	–	–
CC[C@@]1(O)C(=O)OCc2c1cc1n(c2=O)Cc2c-1nc1cc3c(cc1c2C)OCO3 [7-Methyl-10,11-methylenedioxy-20(S)-CPT, 7-methyl-10,11-methylenedioxy-20(S)-camptothecin]	–	5	40 nM	–	–
CCCc1c2c(nc3ccccc13)-c1cc3c(c(=O)n1C2)COC(=O)[C@]3(O)CC [7-Propyl-20(S)-CPT, 7-propyl-20(S)-camptothecin]	–	2	770 nM	–	–
CCc1c2c(nc3cc4c(c(N)c13)OCO4)-c1cc3c(c(=O)n1C2)COC(=O)[C@]3(O)CC [7-ethyl-9-amino-10,11-methylenedioxy-20(S)-camptothecin]	–	10	60 nM	–	–
CCc1c2c(nc3cc4c(c([N+](=O)[O-])c13)OCO4)-c1cc3c(c(=O)n1C2)COC(=O)[C@]3(O)CC [7-ethyl-9-nitro-10,11-methylenedioxy-20(S)-camptothecin]	–	5	210 nM	–	–
CC[C@@]1(O)C(=O)OCc2c1cc1n(c2=O)Cc2cc3c(N)c4c(cc3nc2-1)OCO4 [9-Amino-10,11-MD-20(S)-CPT, 9-amino-10,11-methylenedioxy-20(S)-camptothecin]	–	–	180 nM	50 nM	–
CC[C@@]1(O)C(=O)OCc2c1cc1n(c2=O)Cc2cc3c(N)cccc3nc2-1 [9-Amino-20(S)-CPT, 9-amino-20(S)-camptothecin]	870 nM	2	–	–	–
CC[C@@]1(O)C(=O)OCc2c1cc1n(c2=O)Cc2cc3c(Cl)cccc3nc2-1 [9-Chloro-20(S)-CPT, 9-chloro-20(S)-camptothecin]	–	–	890 nM	90 nM	–
CC[C@@]1(O)C(=O)OCc2c1cc1n(c2=O)Cc2cc3c([N+](=O)[O-])c4c(cc3nc2-1)OCO4 [9-Nitro-10,11-methylenedioxy-20(S)-CPT]	–	3	400 nM	–	–
CC[C@@]1(O)C(=O)OCc2c1cc1n(c2=O)Cc2cc3c([N+](=O)[O-])cccc3nc2-1 [9-Nitro-20(S)-CPT]	1640 nM	–	–	–	–
CC[C@@]1(O)C(=O)OCc2c1cc1n(c2=O)Cc2cc3cc4c(cc3nc2-1)OCO4 [10,11-MD-20(S)-CPT, 10,11-methylenedioxy-20(S)-camptothecin]	–	10	210 nM	30 nM	–
CC[C@@]1(O)C(=O)OCc2c1cc1n(c2=O)Cc2cc3cc(N)ccc3nc2-1 [10-Amino-20(S)-CPT, 10-amino-20(S)-camptothecin]	–	2	1200 nM	–	–
CC[C@@]1(O)C(=O)OCc2c1cc1n(c2=O)Cc2cc3cc(Cl)ccc3nc2-1 [10-Chloro-20(S)-CPT, 10-chloro-20(S)-camptothecin]	–	–	1770 nM	–	–
CC[C@@]1(O)C(=O)OCc2c1cc1n(c2=O)Cc2cc3cc(C)ccc3nc2-1 [10-Methyl-20(S)-CPT]	–	–	3140 nM	–	–
CC[C@@]1(O)C(=O)OCc2c1cc1n(c2=O)Cc2cc3cc([N+](=O)[O-])ccc3nc2-1 [10-Nitro-20(S)-CPT]	–	–	1750 nM	–	–
CC[C@@]1(O)C(=O)OCc2c1cc1n(c2=O)Cc2cc3ccc(N)cc3nc2-1 [11-Amino-20(S)-CPT]	–	–	23100 nM	–	inactive
CC[C@@]1(O)C(=O)OCc2c1cc1n(c2=O)Cc2cc3cccc(N)c3nc2-1 [12-Amino-20(S)-CPT]	–	–	22500 nM	–	inactive
CC[C@@]1(O)C(=O)OCc2c1cc1n(c2=O)Cc2cc3ccccc3nc2-1 [20(S)-CPT, 20(S)-camptothecin]	–	1	1550 nM	–	–
CC[C@@]1(OC(=O)CN)C(=O)OCc2c1cc1n(c2=O)Cc2cc3ccccc3nc2-1 [20-Glycinate-20(S)-CPT]	5100 nM	–	–	–	–
